Assay results as given in PubChem BioAssay AID504563 (Southern Research Specialized Biocontainment Screening …, 2011).

Tested on: HIV-1 CXCR4-tropic in human PBMC, supernatant RT activity
Test: antiviral activity, X4 HIV-1 in human PBMC – cell-based, set 2, dose response (AID 504563)

| Structure (SMILES) | IC50 |
| --- | --- |
| Cc1c2c(=O)n(-c3nc4ccccc4s3)nc-2cc(O)n1Cc1cccs1 | 1.83 µM |
| COc1ccc(Cn2c(O)cc3nn(-c4nc5ccccc5s4)c(=O)c-3c2C)cc1 | 2.86 µM |
| Cc1c2c(=O)n(-c3nc4ccccc4s3)nc-2cc(O)n1CCc1cccs1 | 3.77 µM |
| Cc1c2c(=O)n(-c3nc4ccccc4s3)nc-2cc(O)n1Cc1ccccc1 | 3.21 µM |
| Cc1c2c(=O)n(-c3nc4ccccc4s3)nc-2cc(O)n1Cc1ccncc1 | 1.99 µM |
| Cc1c2c(=O)n(-c3nc4ccccc4s3)nc-2cc(O)n1CCC(C)C | 5.25 µM |
| COc1ccccc1Cn1c(O)cc2nn(-c3nc4ccccc4s3)c(=O)c-2c1C | 5.55 µM |
| Cc1c2c(=O)n(-c3nc4ccccc4s3)nc-2cc(O)n1CCc1ccc(O)cc1 | 1.85 µM |
| Cc1c2c(=O)n(-c3nc4ccccc4s3)nc-2cc(O)n1Cc1ccc(F)cc1 | 3.98 µM |
| COc1ccc(CCn2c(O)cc3nn(-c4nc5ccccc5s4)c(=O)c-3c2C)cc1 | 12.6 µM |
| Cc1c2c(=O)n(-c3nc4ccccc4s3)nc-2cc(O)n1Cc1ccccc1Cl | 7.26 µM |
| Cc1c2c(=O)n(-c3nc4ccccc4s3)nc-2cc(O)n1Cc1cccnc1 | 1.51 µM |
| Cc1c2c(=O)n(-c3nc4ccccc4s3)nc-2cc(O)n1C1CC1 | 0.76 µM |
